Laboratory results taken from patent publication US20110053897A1 (IRM LLC, priority 2009, published 2011).
Read-outs that look alike come from different tables or passages of the source.

Target: T1, Syk kinase (Homo sapiens, UniProt P43405)
T1 construct: purchased
Assay: Syk kinase inhibition, Caliper LabChip off-chip mobility-shift kinase assay
Assay type: biochemical
Conditions: read-out: Syk Enzyme IC50
Outline: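 Purified Syk pre-incubated 15 min with compound in 100 mM HEPES pH 7.5, 1 mM DTT, 10 mM MgCl2 or MnCl2, 0.002% Brij-35, then 1.5 μM fluorescein peptide and ATP at apparent KM added; 1–1.5 h at room temperature, 4% DMSO, EDTA stop. Microfluidic mobility-shift product/substrate conversion gave % inhibition; IC50 from 12-point series (10–0.00003 μM) by 4-parameter fit.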

IC50 [nM]	IC50 (Caliper LabChip assay) [nM]	SMILES
129	–	Cc1ccnc(Nc2cc3ccn(C)c(=O)c3c(NC3CC3)n2)c1 [compound 534]
–	231	CC(C)(C)Nc1nc(Nc2cc(C(F)(F)F)ccn2)cc2ccn(CCO)c(=O)c12 [compound 901]
–	595	CCC(O)(CC)c1ccnc(Nc2cc3ccn(CCO)c(=O)c3c(NC(C)(C)C)n2)c1 [compound 708]
–	615	CC(C)(C)Nc1nc(Nc2cc(N3CCCC(O)C3)ccn2)cc2ccn(CCO)c(=O)c12 (stereo not shown) [compound 848]
–	766	CC(C)(C)Nc1nc(Nc2cc(N3CCCC(CO)C3)ccn2)cc2ccn(CCO)c(=O)c12 (stereo not shown) [compound 845]
–	27	O=c1c2c(NC3CC3)nc(Nc3cnccn3)cc2ccn1CCO [compound 818]
–	99	Cn1cc2cc(Nc3nc(Nc4c[n+]([O-])ccn4)cc4ccn(CCO)c(=O)c34)ccc2n1 [compound 658]
–	48	CC(O)c1ccnc(Nc2cc3ccn(CC(N)=O)c(=O)c3c(NC3(C)CC3)n2)c1 (stereo not shown) [compound 723]
193	–	CCn1ccc2cc(Nc3cnc(C)cn3)nc(N[C@H]3CC[C@@H](O)CC3)c2c1=O [compound 392]
–	153	CCn1ccc2cc(Nc3cnccn3)nc(NC(C)(CO)CO)c2c1=O [compound 809]
–	273	CC(=O)c1cc(Nc2cc3ccn(CCO)c(=O)c3c(NC(C)(C)C)n2)ncn1 [compound 633, 6-(6-acetylpyrimidin-4-ylamino)-8-(tert-butylamino)-2-(2-hydroxyethyl)-2,7-naphthyridin-1(2H)-one]
–	58	CCn1ccc2cc(Nc3cnccn3)nc(N[C@@H]3CC[C@@H](CO)C3)c2c1=O [compound 791]
–	92	CCn1ccc2cc(Nc3cc(C)ccn3)nc(NC3CCC(C)(O)CC3)c2c1=O (stereo not shown) [compound 951]
–	75	CCn1ccc2cc(Nc3cc(C)ccn3)nc(NC3CCS(=O)(=O)C3)c2c1=O (stereo not shown) [compound 970]
–	3	CC(C)n1ccc2cc(Nc3cnccn3)nc(N[C@H]3CC[C@@H](CO)C3)c2c1=O [compound 988]
–	103	Cn1cc(-c2ccnc(Nc3cc4ccn(CCO)c(=O)c4c(NC(C)(C)C)n3)c2)cn1 [compound 830]
–	87	CCn1ccc2cc(Nc3cnccn3)nc(N[C@@H]3CCC[C@@H]3CO)c2c1=O [compound 942]
–	12	COCC(O)Cn1ccc2cc(Nc3cnccn3)nc(NC(C)(C)C)c2c1=O (stereo not shown) [compound 677]
–	197	CC(C)(C)Nc1nc(Nc2cc(C(C)(C)N)ccn2)cc2ccn(CCO)c(=O)c12 [compound 711, 6-(4-(2-aminopropan-2-yl)pyridin-2-ylamino)-8-(tert-butylamino)-2-(2-hydroxyethyl)-2,7-naphthyridin-1(2H)-one]

IC50 [nM]	IC50 (Caliper LabChip assay) [nM]	SMILES
–	55	CC(C)n1ccc2cc(Nc3cc(C(C)(C)O)ccn3)nc(N[C@H]3CC[C@@H](O)CC3)c2c1=O [compound 706]
–	216	CC(C)(C)Nc1nc(Nc2cc(N3CCC(O)CC3)ccn2)cc2ccn(CCO)c(=O)c12 [compound 846]
–	296	Cc1ccnc(Nc2cc3ccn(CCN4CCOCC4)c(=O)c3c(NC(C)(C)C)n2)c1 [compound 997]
–	27	CC(C)(C)Nc1nc(Nc2cnccn2)cc2ccn(Cc3nn[nH]n3)c(=O)c12 [compound 884]
–	16	COC(C)c1ccnc(Nc2cc3ccn(CCO)c(=O)c3c(NC(C)(C)C)n2)c1 (stereo not shown) [compound 868]
–	21	CC(C)(C)Nc1nc(Nc2cc(Oc3cn[nH]c3)ncn2)cc2ccn(C[C@H](O)CO)c(=O)c12 [compound 890]
–	251	CC(C)(C)Nc1nc(Nc2cc(CN3CC(O)C3)c(F)cn2)cc2ccn(CCO)c(=O)c12 [compound 611]
–	754	CCn1ccc2cc(Nc3cc(C)ccn3)nc(NC3CC=C(C)CC3)c2c1=O (stereo not shown) [compound 954]
–	161	CC(C)(C)Nc1nc(Nc2cc(N3CCC(O)CC3)ncn2)cc2ccn(CCO)c(=O)c12 [compound 634]
–	151	CC(C)(C)Nc1nc(Nc2cc(-c3ccno3)ccn2)cc2ccn(CCO)c(=O)c12 [compound 689]
52	–	CC(C)Nc1nc(Nc2cnccn2)cc2ccn(CCO)c(=O)c12 [compound 318]
–	45	CC1(Nc2nc(Nc3cc(C(C)(C)O)ccn3)cc3ccn(CCO)c(=O)c23)CCC1 [compound 704]
–	81	CC(C)(C)Nc1nc(-c2cnc(N)nc2)cc2ccn(CC3CCOCC3)c(=O)c12 [compound 919]
235	–	CS(=O)(=O)c1ccc(Nc2nc(Nc3cnccn3)cc3ccn(CCO)c(=O)c23)cc1 [compound 405]
–	10	O=c1c2c(N[C@H]3CC[C@@H](O)CC3)nc(Nc3cnccn3)cc2ccn1CCF [compound 999]
–	500	CC(C)(C)Nc1nc(Nc2cc(N3CCC(CO)CC3)ccn2)cc2ccn(CCO)c(=O)c12 [compound 847]
16	–	Cc1ccnc(Nc2cc3ccn(CCO)c(=O)c3c(N[C@H]3CCC[C@H]3O)n2)c1 (racemic) [compound 368]
–	12	COCC(COC)n1ccc2cc(Nc3cnccn3)nc(NC(C)(C)C)c2c1=O [compound 937]

More lines, now with the values behind:

SMILES	IC50 [nM]	IC50 (Caliper LabChip assay) [nM]
CCOC(=O)c1ccc(Nc2cc3cc[nH]c(=O)c3c(Nc3ccc(N4CCOCC4)cc3)n2)nc1 [compound 578]	186	–
CCn1ccc2cc(Nc3cnccn3)nc(NS(C)(=O)=O)c2c1=O [compound 745]	–	69
O=c1[nH]ccc2cc(CCO)nc(Nc3ccc(N4CCOCC4)cc3)c12 [compound 244]	31	–
Cc1cc(Nc2nc(CCO)cc3cc[nH]c(=O)c23)ccc1C1CCN(C2CC2)CC1 [compound 246]	41	–
CCNC(=O)c1ccc(Nc2nc(Nc3cc(C)ccn3)cc3ccn(C)c(=O)c23)cc1 [compound 380]	379	–
O=c1[nH]ccc2cc(-c3cncnc3)nc(Nc3ccc([C@H]4CC[C@H](N5CCOCC5)CC4)cc3)c12 [compound 111]	190	–
COc1cncc(-c2cc3cc[nH]c(=O)c3c(Nc3ccc(C4CCN(C5CC5)CC4)c(C)c3)n2)n1 [compound 210]	88	–
Cc1cc(-c2cc3cc[nH]c(=O)c3c(Nc3ccc(C4CCN(CCC#N)CC4)c(C)c3)n2)nc(N)n1 [compound 70]	344	–
Cc1cc(-c2cc3cc[nH]c(=O)c3c(Nc3ccc([C@H]4CC[C@H](N5CCOCC5)CC4)cc3)n2)cnc1N [compound 100]	193	–
O=c1[nH]ccc2cc(Nc3ccccn3)nc(N[C@H]3CCC[C@H]3O)c12 (racemic) [compound 280]	62	–
Cn1ccc2cc(Nc3ccc(C(N)=O)cn3)nc(N)c2c1=O [compound 574]	142	–
COc1cncc(-c2cc3cc[nH]c(=O)c3c(Nc3ccc(C4CCN(C(C)C(=O)O)CC4)c(C)c3)n2)n1 (stereo not shown) [compound 117]	22	–
CCN1CCN(CCc2ccc(Nc3nc(-c4cnc(OC)nc4)cc4c(F)c[nH]c(=O)c34)cc2)CC1 [compound 439]	474	–
Cc1ccnc(Nc2cc3cc[nH]c(=O)c3c(N[C@@H]3CCOC3)n2)c1 [compound 301]	37	–
[2H]C([2H])([2H])n1ccc2cc(Nc3cnccn3)nc(N[C@@H](C)CO)c2c1=O [compound 402]	45.7	–
Cc1ccnc(Nc2cc3ccn(C)c(=O)c3c(Nc3cccc(C(N)=O)c3)n2)c1 [compound 507]	136	–
Cn1ccc2cc(-c3cnc(N)nc3)nc(NC3CC3)c2c1=O [compound 38]	62	–
CCn1ccc2cc(Nc3cnccn3)nc(Nc3ccc(C(=O)N4CCC(O)C4)cc3)c2c1=O (stereo not shown) [compound 833]	–	263

SMILES	IC50 [nM]	IC50 (Caliper LabChip assay) [nM]
Cc1cc(Nc2nc(-c3ccnc(N)n3)cc3cc[nH]c(=O)c23)ccc1C1CCN(CCC#N)CC1 [compound 67]	328	–
COc1cncc(-c2cc3cc[nH]c(=O)c3c(Nc3ccc(C4CCN(C(C)=O)CC4)c(C)c3)n2)n1 [compound 144]	92	–
Cn1ccc2cc(-c3cnc(N)nc3)nc(NCCN3CCOCC3)c2c1=O [compound 36]	428	–
Cc1ccnc(Nc2cc3cc[nH]c(=O)c3c(NCc3ccccc3)n2)c1 [compound 591]	5680	–
Cn1cc(Cl)c2cc(Nc3cnccn3)nc(N[C@H]3CC[C@@H](O)CC3)c2c1=O [compound 785]	–	144
COCC(C)(C)C(=O)N1CCC(c2ccc(Nc3nc(-c4cncc(OC)n4)cc4cc[nH]c(=O)c34)cc2C)CC1 [compound 8]	253	–
Nc1ncc(-c2cc3cc[nH]c(=O)c3c(NC[C@@H](O)c3cccc(Cl)c3)n2)cn1 [compound 449]	384	–
O=c1[nH]ccc2cc(C3=CCNCC3)nc(Nc3ccc(N4CCOCC4)cc3)c12 [compound 88]	51	–
COc1cncc(-c2cc3cc[nH]c(=O)c3c(Nc3ccc(C4CCN(C(=O)[C@@H](C)OC)CC4)c(C)c3)n2)n1 [compound 57]	47	–
CCCCNc1nc(Nc2cc(C)ccn2)cc2cc[nH]c(=O)c12 [compound 532]	250	–
COCCN1CCN(c2n[nH]c3cc(Nc4nc(-c5cnc(OC)nc5)cc5cc[nH]c(=O)c45)ccc23)CC1 [compound 216]	37	–
CCOCC(=O)N1CCC(c2ccc(Nc3nc(-c4cncc(OC)n4)cc4cc[nH]c(=O)c34)cc2)CC1 [compound 28]	115	–
COCC(=O)N1CCC(c2ccc(Nc3nc(-c4cncc(OC)n4)cc4cc[nH]c(=O)c34)cc2C)CC1 [compound 49]	75	–
CNC(=O)CCN1CCC(c2ccc(Nc3nc(-c4cncc(OC)n4)cc4cc[nH]c(=O)c34)cc2C)CC1 [compound 161]	18	–
Cc1cnc(Nc2cc3cc[nH]c(=O)c3c(Nc3ccc(C4CCN(C5CC5)CC4)c(C)c3)n2)cn1 [compound 248]	2020	–
Cc1cn(CCO)c(=O)c2c(NC(C)(C)C)nc(-c3cnc(N)nc3)cc12 [compound 671]	–	13
CCN1CCN(C(=O)c2ccc(Nc3nc(-c4cncc(OC)n4)cc4cc[nH]c(=O)c34)cc2)CC1 [compound 64]	35	–
Cc1ccc(-c2cc3cc[nH]c(=O)c3c(Nc3ccc(C4CCN(CCCF)CC4)c(C)c3)n2)cn1 [compound 46]	37	–
